From US10561749B2, “Nuclear medicine diagnostic imaging agent” (Kyoto University, priority 2015, dated 2020) come the findings set out here.

The structures appear in SMILES notation.

Format in all cases: biochemical
In one assay the target is T1, EGFR (L858R) (Homo sapiens, UniProt P00533, L858R).
T1 construct: purchased Promega V5322
Description: EGFR tyrosine kinase inhibiting activity, ADP-Glo (EGFR (L858R) Kinase Enzyme System). The conditions noted are these: read-out: EGFR Kinase inhibition: IC50 L858R. Here is the method:
(§1) Four types of EGFR Kinase Enzyme Systems, specifically, EGFR Kinase Enzyme System (Catalog No. V3831), EGFR (L858R) Kinase Enzyme System (Catalog No. V5322), EGFR (T790M) Kinase Enzyme System (Catalog No. V4506), and EGFR (T790M, L858R) Kinase Enzyme System (Catalog No. V5324) were used (all of them were manufactured by Promega).
(§2) The measurement was carried out according to the Promega protocol applications guide. That is, a buffer solution (40 mM Tris-HCl, pH 7.5, 20 mM MgCl2, 50 μM DTT and 0.1 mg/mL BSA) was used as a dilute solution. The concentration of each compound started at 20 μM (the final concentration, including 1% DMSO) with 5-fold dilutions with the buffer solution. Thus, ten concentrations of each compound were prepared. Then, 2 μL of each concentration of each compound thus obtained was added to each well of a 384-well plate. Furthermore, 4 μL (20 ng) of an EGFR Kinase […] that came with each EGFR Kinase Enzyme System was added to each well, which then was incubated at room temperature for ten minutes. Subsequently, 4 μL of mixed solution of ATP (10 μM) and Poly(Glu, Tyr) (2 μg) substrate was added to each well, which then was incubated at room temperature for one hour. Then, 10 μL of ADP-Glo™ Reagent (ADP-Glo™ Kinase Assay, Promega) was added to each well, which then was reacted at room temperature for 40 minutes. Furthermore, 20 μL of Kinase Detection Reagent (ADP-Glo™ Kinase Assay, Promega) was added to each well, which then was reacted at room temperature for one hour. […] From the data thus obtained, dose-response curves and IC50 were calculated using GraphPad Prism 5 (GraphPad Software, Inc.). In Table 1 below, WT indicates the measurement results obtained with the EGFR Kinase Enzyme System, L858R indicates the measurement results obtained with the EGFR (L858R) Kinase Enzyme System, T790M indicates the measurement results obtained with the EGFR (T790M) Kinase Enzyme System, and DM indicates the measurement results obtained with the EGFR (T790M, L858R) Kinase Enzyme System.
Background: ADP-Glo first removes unused ATP, then detects ADP through luciferase.

The target of the next assay is T2, EGFR (T790M) (Homo sapiens, UniProt P00533, T790M).
T2 construct: purchased Promega V4506
Description: EGFR tyrosine kinase inhibiting activity, ADP-Glo (EGFR (T790M) Kinase Enzyme System). The conditions noted are these: for EGFR Kinase inhibition: IC50 T790M: ATP 10 μM, max concentration 20 μM, >10: <50% inhibition at 10 μM, no active: almost no activity at 20 μM; for IC50: read-out: EGFR Kinase inhibition: IC50 T790M. Here is the method:
as §1, §2

The target in the next assay is T3, EGFR (T790M, L858R) (Homo sapiens, UniProt P00533, L858R/T790M).
T3 construct: purchased Promega V5324
Description: EGFR tyrosine kinase inhibiting activity, ADP-Glo (EGFR (T790M, L858R) Kinase Enzyme System, DM). The conditions noted are these: for EGFR Kinase inhibition: IC50 DM: ATP 10 μM, max concentration 20 μM, >10: <50% inhibition at 10 μM, no active: almost no activity at 20 μM; for IC50: read-out: EGFR Kinase inhibition: IC50 DM. How it is done: as §1, §2

For assay [1], the target named is T4, EGFR tyrosine kinase (WT) (Homo sapiens, UniProt P00533).
T4 construct: purchased Promega V3831
The assay can be described thus: EGFR tyrosine kinase inhibiting activity, ADP-Glo (EGFR Kinase Enzyme System, WT). The conditions noted are these: read-out: EGFR Kinase inhibition: IC50 WT. How it is done: as §1, §2

T4 sequence (P00533 25-1210): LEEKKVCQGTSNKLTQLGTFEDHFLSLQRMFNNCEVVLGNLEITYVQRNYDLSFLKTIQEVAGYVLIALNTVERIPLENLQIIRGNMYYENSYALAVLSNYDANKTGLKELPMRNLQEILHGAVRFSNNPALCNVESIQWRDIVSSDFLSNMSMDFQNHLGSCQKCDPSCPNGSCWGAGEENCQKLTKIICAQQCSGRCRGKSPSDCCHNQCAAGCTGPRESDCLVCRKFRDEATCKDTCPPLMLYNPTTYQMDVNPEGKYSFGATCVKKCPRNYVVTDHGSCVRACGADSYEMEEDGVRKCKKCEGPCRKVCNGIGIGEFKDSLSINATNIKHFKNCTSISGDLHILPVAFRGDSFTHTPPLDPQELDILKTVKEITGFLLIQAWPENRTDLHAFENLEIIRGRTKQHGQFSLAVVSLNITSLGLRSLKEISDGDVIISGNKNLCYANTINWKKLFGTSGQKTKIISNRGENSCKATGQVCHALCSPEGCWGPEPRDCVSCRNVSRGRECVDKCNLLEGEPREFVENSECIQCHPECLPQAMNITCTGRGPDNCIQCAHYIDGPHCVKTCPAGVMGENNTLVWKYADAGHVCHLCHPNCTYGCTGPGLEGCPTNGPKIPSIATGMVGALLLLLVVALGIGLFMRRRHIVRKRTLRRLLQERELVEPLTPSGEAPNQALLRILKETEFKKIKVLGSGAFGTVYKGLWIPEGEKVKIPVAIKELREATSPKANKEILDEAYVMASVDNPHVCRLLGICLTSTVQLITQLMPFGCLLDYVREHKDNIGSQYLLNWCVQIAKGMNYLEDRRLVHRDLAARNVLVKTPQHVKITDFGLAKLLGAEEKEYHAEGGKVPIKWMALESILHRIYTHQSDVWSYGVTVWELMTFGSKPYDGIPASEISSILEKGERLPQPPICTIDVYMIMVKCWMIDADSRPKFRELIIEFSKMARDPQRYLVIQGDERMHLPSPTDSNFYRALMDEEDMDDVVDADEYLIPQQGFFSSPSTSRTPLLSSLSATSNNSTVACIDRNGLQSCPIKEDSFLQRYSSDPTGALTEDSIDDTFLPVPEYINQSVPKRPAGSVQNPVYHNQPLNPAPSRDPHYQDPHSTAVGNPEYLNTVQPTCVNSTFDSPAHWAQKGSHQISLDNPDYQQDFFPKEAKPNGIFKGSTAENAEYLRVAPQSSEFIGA
T2 sequence (P00533 25-1210 T790M): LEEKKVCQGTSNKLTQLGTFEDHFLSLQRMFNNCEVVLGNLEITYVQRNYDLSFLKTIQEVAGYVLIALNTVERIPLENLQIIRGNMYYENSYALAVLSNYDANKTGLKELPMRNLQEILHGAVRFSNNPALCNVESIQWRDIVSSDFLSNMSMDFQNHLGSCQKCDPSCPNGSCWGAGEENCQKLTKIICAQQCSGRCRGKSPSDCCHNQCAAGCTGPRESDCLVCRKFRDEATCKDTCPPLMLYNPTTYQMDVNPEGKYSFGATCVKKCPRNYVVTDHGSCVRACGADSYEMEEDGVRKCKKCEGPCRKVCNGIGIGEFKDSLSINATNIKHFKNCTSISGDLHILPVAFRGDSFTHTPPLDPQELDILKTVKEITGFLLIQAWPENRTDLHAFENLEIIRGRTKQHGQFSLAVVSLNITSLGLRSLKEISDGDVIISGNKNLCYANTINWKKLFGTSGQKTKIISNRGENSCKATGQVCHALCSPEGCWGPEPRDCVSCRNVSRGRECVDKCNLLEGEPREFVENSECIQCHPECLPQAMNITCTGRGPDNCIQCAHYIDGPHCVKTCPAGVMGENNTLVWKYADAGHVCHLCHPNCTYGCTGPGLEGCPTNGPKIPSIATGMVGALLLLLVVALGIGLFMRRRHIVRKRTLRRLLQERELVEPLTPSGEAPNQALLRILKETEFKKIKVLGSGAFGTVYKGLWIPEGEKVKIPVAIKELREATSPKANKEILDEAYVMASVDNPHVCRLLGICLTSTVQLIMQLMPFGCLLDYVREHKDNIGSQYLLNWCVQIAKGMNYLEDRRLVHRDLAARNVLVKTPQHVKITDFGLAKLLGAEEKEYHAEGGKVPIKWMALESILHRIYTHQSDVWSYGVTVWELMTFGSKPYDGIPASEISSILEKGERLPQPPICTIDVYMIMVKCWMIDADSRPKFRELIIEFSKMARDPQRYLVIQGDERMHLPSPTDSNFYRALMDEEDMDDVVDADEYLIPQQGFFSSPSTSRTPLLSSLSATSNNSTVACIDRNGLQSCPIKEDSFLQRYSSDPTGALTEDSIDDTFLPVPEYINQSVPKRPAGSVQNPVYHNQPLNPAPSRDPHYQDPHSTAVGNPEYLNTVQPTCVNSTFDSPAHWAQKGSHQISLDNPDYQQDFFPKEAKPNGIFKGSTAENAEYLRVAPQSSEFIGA
T3 sequence (P00533 25-1210 T790M/L858R): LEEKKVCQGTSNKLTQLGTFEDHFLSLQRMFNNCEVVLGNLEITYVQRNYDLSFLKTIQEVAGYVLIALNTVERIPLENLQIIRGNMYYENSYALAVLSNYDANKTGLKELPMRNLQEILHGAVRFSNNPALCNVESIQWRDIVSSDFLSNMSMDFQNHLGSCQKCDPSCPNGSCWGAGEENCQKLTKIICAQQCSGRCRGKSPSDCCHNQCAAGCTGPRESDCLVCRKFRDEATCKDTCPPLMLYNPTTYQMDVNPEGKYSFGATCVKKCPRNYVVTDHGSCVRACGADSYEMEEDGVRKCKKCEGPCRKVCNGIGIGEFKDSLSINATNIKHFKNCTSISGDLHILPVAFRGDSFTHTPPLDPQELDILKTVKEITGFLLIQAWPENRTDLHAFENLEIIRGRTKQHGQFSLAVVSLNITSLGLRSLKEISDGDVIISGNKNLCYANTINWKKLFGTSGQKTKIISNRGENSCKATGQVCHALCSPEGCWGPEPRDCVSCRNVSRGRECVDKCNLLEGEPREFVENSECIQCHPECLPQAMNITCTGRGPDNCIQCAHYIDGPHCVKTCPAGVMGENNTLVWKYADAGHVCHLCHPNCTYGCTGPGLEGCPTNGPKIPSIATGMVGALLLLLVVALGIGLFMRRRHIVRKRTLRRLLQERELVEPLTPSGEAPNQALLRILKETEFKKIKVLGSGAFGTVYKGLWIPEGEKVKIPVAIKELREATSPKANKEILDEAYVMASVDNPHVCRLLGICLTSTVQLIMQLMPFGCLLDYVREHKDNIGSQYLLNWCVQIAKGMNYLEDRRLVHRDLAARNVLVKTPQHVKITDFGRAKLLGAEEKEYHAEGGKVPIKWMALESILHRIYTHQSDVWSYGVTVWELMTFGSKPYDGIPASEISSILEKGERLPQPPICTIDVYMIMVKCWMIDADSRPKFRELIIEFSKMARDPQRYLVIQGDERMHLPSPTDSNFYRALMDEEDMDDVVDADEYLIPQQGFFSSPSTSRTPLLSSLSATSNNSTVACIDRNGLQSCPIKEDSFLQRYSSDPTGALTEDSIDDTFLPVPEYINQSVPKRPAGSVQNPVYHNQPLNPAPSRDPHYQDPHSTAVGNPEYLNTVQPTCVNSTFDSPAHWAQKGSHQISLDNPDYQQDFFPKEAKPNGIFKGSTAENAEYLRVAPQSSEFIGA
T1 sequence (P00533 25-1210 L858R): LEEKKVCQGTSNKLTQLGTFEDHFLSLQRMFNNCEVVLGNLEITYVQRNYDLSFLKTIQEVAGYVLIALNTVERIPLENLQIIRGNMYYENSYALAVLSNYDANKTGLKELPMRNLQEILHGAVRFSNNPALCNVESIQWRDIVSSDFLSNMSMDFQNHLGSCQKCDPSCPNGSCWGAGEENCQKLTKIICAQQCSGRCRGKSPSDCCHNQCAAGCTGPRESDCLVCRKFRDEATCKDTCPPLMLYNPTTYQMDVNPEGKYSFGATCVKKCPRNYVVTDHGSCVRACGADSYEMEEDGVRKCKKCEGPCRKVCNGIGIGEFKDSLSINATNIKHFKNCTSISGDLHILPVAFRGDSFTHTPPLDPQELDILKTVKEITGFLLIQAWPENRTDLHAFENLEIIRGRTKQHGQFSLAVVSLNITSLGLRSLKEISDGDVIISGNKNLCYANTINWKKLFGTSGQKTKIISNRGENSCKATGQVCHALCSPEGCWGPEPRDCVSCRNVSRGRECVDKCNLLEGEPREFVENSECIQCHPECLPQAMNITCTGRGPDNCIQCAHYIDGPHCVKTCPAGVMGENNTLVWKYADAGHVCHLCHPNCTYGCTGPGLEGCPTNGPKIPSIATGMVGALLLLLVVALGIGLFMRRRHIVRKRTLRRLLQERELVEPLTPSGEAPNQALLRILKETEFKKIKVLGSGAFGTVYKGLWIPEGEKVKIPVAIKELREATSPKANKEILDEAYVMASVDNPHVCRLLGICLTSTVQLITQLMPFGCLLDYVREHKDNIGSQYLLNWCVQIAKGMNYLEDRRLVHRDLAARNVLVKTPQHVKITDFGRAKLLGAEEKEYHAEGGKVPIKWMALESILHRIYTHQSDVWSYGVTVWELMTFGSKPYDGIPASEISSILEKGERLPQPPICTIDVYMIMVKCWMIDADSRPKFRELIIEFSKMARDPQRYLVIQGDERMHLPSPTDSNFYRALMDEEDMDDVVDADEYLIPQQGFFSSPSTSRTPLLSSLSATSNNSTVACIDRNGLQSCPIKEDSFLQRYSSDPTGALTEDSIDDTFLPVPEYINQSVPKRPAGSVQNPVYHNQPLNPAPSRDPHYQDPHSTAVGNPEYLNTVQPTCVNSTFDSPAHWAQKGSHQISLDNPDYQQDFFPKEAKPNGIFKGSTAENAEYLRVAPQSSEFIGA

For `O=C(CN1CCN(CCF)CC1)N1CCc2c(sc3ncnc(N[C@H](CO)c4ccccc4)c23)C1` [P3, (S)-2-(4-(2-Fluoroethyl)piperazin-1-yl)-1-(4-((2-hydroxy-1phenylethyl)amino)-5,8-dihydropyrido[4′,3′:4,5]thieno[2,3-d]pyrimidin-7(6H)-yl)ethan-1-one], the values for the half-maximal inhibitory concentration (IC50) (at EGFR (L858R); in assay [1]) were 2.67 µM and 4.37 µM, respectively. For the same molecule, the “EGFR Kinase inhibition: IC50 T790M” value at EGFR (T790M) is recorded as “no active”. For the same molecule, the “EGFR Kinase inhibition: IC50 DM” value at EGFR (T790M, L858R) was “no active”.

Consider `OC[C@@H](Nc1ncnc2sc3c(c12)CCN(CCF)C3)c1ccccc1` [P1], for which the concentration for half-maximal inhibition (IC50) (in general, the midpoint of a concentration-inhibition curve) came out at 3.41 µM at EGFR (L858R) and 2.31 µM in assay [1]. For the same molecule, the “EGFR Kinase inhibition: IC50 T790M” value at EGFR (T790M) is reported as “no active”. Further, the “EGFR Kinase inhibition: IC50 DM” value on EGFR (T790M, L858R) is recorded as “no active”.

For the molecule `COC[C@@H](Nc1ncnc2sc3c(c12)CCN(C(=O)/C=C/CN1CCN(CCF)CC1)C3)c1ccccc1` [P7], the IC50 was 0.051 µM on EGFR (L858R) and 0.374 µM in assay [1]. In addition, the “EGFR Kinase inhibition: IC50 T790M” value on EGFR (T790M) is on record as “no active”. At EGFR (T790M, L858R), the “EGFR Kinase inhibition: IC50 DM” value is listed as “no active”.

With `O=C(/C=C/CN1CCN(CCF)CC1)N1CCc2c(sc3ncnc(Nc4cccc(Br)c4)c23)C1` [P8], the IC50 turned out to be 1.38 µM on EGFR (L858R) and 4.31 µM in assay [1]. In addition, the “EGFR Kinase inhibition: IC50 T790M” value on EGFR (T790M) was “no active”. The “EGFR Kinase inhibition: IC50 DM” value on EGFR (T790M, L858R) is listed as “no active”.

On to `C[C@@H](Nc1ncnc2sc3c(c12)CCN(C(=O)/C=C/CN1CCN(CCF)CC1)C3)c1ccccc1` [P5, (R,E)-4-(4-(2-Fluoroethyl)piperazin-1-yl)-1-(4-((1-phenylethyl)amino)-5,8-dihydropyrido[4′,3′:4,5]thieno[2,3-d]pyrimidin-7(6H)-yl)but-2-en-1-one], for which the IC50 was 0.027 µM on EGFR (L858R); over 10 µM at EGFR (T790M); over 10 µM on EGFR (T790M, L858R); 0.13 µM in assay [1].

Turning to `O=C(CCN1CCN(CCF)CC1)N1CCc2c(sc3ncnc(N[C@H](CO)c4ccccc4)c23)C1` [P4, (S)-3-(4-(2-Fluoroethyl)piperazin-1-yl)-1-(4-((2-hydroxy-1phenylethyl)amino)-5,8-dihydropyrido[4′,3′:4,5]thieno[2,3-d]pyrimidin-7(6H)-yl)propan-1-one], the 50% inhibitory concentration (IC50) at EGFR (L858R) amounted to 1.83 µM; in assay [1], 2.83 µM. On EGFR (T790M), the “EGFR Kinase inhibition: IC50 T790M” value is listed as “no active”. Also, the “EGFR Kinase inhibition: IC50 DM” value on EGFR (T790M, L858R) was “no active”.

Regarding `O=C(/C=C/CN1CCN(CCOCCOCCOCCF)CC1)N1CCc2c(sc3ncnc(N[C@H](CO)c4ccccc4)c23)C1` [P10], the 50% inhibitory concentration (IC50) is 0.052 µM on EGFR (L858R); over 10 µM on EGFR (T790M); over 10 µM at EGFR (T790M, L858R); 0.09 µM in assay [1].

For `O=C(/C=C/CN1CCN(CCOCCF)CC1)N1CCc2c(sc3ncnc(N[C@H](CO)c4ccccc4)c23)C1` [P9], the 50% inhibitory concentration (IC50) at EGFR (L858R) was 0.031 µM; at EGFR (T790M) it was over 10 µM; on EGFR (T790M, L858R), over 10 µM; in assay [1], 0.067 µM.

With `O=C(/C=C/CN1CCN(CCF)CC1)N1CCc2c(sc3ncnc(N[C@H](CO)c4ccccc4)c23)C1` [P2, (S,E)-4-(4-(2-Fluoroethyl)piperazin-1-yl)-1-(4-((2-hydroxy-1phenylethyl)amino)-5,8-dihydropyrido[4′,3′:4,5]thieno[2,3-d]pyrimidin-7(6H)-yl)but-2-en-1-one], the IC50 at EGFR (L858R) was 0.009 µM; at EGFR (T790M), 8.97 µM; at EGFR (T790M, L858R), over 10 µM; in assay [1], 0.044 µM.

For the molecule `O=C(/C=C/CN1CCN(CCF)CC1)N1CCc2c(sc3ncnc(O[C@@H](c4ccccc4)C(F)(F)F)c23)C1` [P6, (S,E)-4-(4-(2-Fluoroethyl)piperazin-1-yl)-1-(4-(2,2,2-trifluoro-1-phenylethoxy)-5,8-dihydropyrido[4′,3′:4,5]thieno[2,3-d]pyrimidin-7 (6H)-yl)but-2-en-1-one], the IC50 was 0.336 µM at EGFR (L858R); over 10 µM on EGFR (T790M, L858R); 0.896 µM in assay [1]. Also, the “EGFR Kinase inhibition: IC50 T790M” value at EGFR (T790M) is “no active”.
